Reference: ChEMBL document CHEMBL1140182, “Modeling binding modes of alpha7 nicotinic acetylcholine receptor with ligands: the roles of Gln117 and other residues of the receptor in agonist binding” (J Med Chem, 2008)

Key:
[1] = biological target: T1, Neuronal acetylcholine receptor subunit alpha-7 (Homo sapiens, UniProt P36544); experiment: Displacement of [125I]alpha-bungarotoxin from alpha7 nAChR
[2] = Agonist activity at human cloned alpha7 nAChR Gln117Phe mutant expressed in Xenopus laevis oocytes assessed as channel opening by voltage clamp electrophysiology; format: functional, cell-based; settings: Oocyte
[3] = biological target: T1, Neuronal acetylcholine receptor subunit alpha-7; experiment: Agonist activity at human cloned wild-type alpha7 nAChR expressed in Xenopus laevis oocytes assessed as channel opening by voltage clamp electrophysiology; format: functional, cell-based, Oocyte

T1 sequence (P36544 whole entry): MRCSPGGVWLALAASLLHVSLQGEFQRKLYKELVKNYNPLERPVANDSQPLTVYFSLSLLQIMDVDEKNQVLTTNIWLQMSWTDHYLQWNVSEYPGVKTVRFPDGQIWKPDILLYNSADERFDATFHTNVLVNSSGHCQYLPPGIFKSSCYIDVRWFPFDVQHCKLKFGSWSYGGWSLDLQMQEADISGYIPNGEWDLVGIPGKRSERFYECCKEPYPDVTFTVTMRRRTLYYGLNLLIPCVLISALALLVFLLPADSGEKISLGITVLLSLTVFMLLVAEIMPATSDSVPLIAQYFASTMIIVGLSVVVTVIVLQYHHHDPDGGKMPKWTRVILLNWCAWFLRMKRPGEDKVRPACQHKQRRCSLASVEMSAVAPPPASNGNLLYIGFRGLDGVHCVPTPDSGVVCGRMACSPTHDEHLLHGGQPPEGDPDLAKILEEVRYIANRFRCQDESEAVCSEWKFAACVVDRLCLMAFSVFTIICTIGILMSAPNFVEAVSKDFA

Structure (SMILES) | Kd [1] [nM] | EC50 [2] [µM] | EC50 [3] [µM]
CCN1C[C@@]2(CN3CCC2CC3)OC1=O | 690 | – | –
COc1ccc(/C=C2\CCCN=C2c2cccnc2)c(OC)c1 [GTS-21] | 158 | – | –
O=C1NC[C@@]2(CN3CCC2CC3)O1 | 92 | 22.3 | 3.6
